Laboratory results published in PubChem BioAssay AID2060341 (Molecular Pharmacology Branch, DTP, NCI, 2025).

System: 327498-153-R-J2-PDC multicell spheroid viability
Experiment: Anticancer human tumor 327498-153-R-J2-PDC patient-derived uterine carcinosarcoma cell line growth inhibition [IpAb]
Conditions: for IC50: curve of first compound; for viability, T/C: stronger effect = lower value
How it was run: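 Combinations with ipatasertib or abemaciclib were tested on tumour spheroids holding HUVEC (25%) and MSC (15%) alongside 60% malignant cells. Top concentration was at or near clinical Cmax (10 microM if undefined), descending in half-log steps.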

[1] = second compound 0.01 µM, first compound 0.0316 µM
[2] = second compound 0.01 µM, first compound 0.1 µM
[3] = second compound 0.01 µM, first compound 0.316 µM
[4] = second compound 0.01 µM, first compound 1 µM
[5] = second compound 0.01 µM, first compound 3.16 µM
[6] = second compound 0.01 µM, first compound 10 µM
[7] = second compound 0.0316 µM, first compound 0.0316 µM
[8] = second compound 0.0316 µM, first compound 0.1 µM
[9] = second compound 0.0316 µM, first compound 0.316 µM
[10] = second compound 0.0316 µM, first compound 1 µM
[11] = second compound 0.0316 µM, first compound 3.16 µM
[12] = second compound 0.0316 µM, first compound 10 µM
[13] = second compound 0.1 µM, first compound 0.0316 µM
[14] = second compound 0.1 µM, first compound 0.1 µM
[15] = second compound 0.1 µM, first compound 0.316 µM
[16] = second compound 0.1 µM, first compound 1 µM
[17] = second compound 0.1 µM, first compound 3.16 µM
[18] = second compound 0.1 µM, first compound 10 µM
[19] = second compound 0.316 µM, first compound 0.0316 µM
[20] = second compound 0.316 µM, first compound 0.1 µM
[21] = second compound 0.316 µM, first compound 0.316 µM
[22] = second compound 0.316 µM, first compound 1 µM
[23] = second compound 0.316 µM, first compound 3.16 µM
[24] = second compound 0.316 µM, first compound 10 µM
[25] = second compound 1 µM, first compound 0.0316 µM
[26] = second compound 1 µM, first compound 0.1 µM
[27] = second compound 1 µM, first compound 0.316 µM
[28] = second compound 1 µM, first compound 1 µM
[29] = second compound 1 µM, first compound 3.16 µM
[30] = second compound 1 µM, first compound 10 µM
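Also: spheroids exposed to agents for 7 days.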
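For viability, T/C in this document: 100% = DMSO vehicle control viability.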

C=CCn1c(=O)c2cnc(Nc3ccc(N4CCN(C)CC4)cc3)nc2n1-c1cccc(C(C)(C)O)n1 + CCN1CCN(Cc2ccc(Nc3ncc(F)c(-c4cc(F)c5nc(C)n(C(C)C)c5c4)n3)nc2)CC1
IC50 (second compound 0.01 µM): 318 nM | IC50 (second compound 0.0316 µM): 261 nM | IC50 (second compound 0.1 µM): 222 nM | IC50 (second compound 0.316 µM): 250 nM | IC50 (second compound 1 µM): 313 nM | viability, T/C [1]: 94.3% | viability, T/C [2]: 88.5% | viability, T/C [3]: 50.6% | viability, T/C [4]: 5.09% | viability, T/C [5]: 4.75% | viability, T/C [6]: 5.85% | viability, T/C [7]: 84.4% | viability, T/C [8]: 76.9% | viability, T/C [9]: 44.9% | viability, T/C [10]: 6.81% | viability, T/C [11]: 5.01% | viability, T/C [12]: 6.96% | viability, T/C [13]: 69.1% | viability, T/C [14]: 68.5% | viability, T/C [15]: 41.9% | viability, T/C [16]: 11.1% | viability, T/C [17]: 7.8% | viability, T/C [18]: 9.75% | viability, T/C [19]: 66.2% | viability, T/C [20]: 61.1% | viability, T/C [21]: 47.3% | viability, T/C [22]: 24% | viability, T/C [23]: 14.6% | viability, T/C [24]: 14.8% | viability, T/C [25]: 60.6% | viability, T/C [26]: 58.6% | viability, T/C [27]: 50.4% | viability, T/C [28]: 31.8% | viability, T/C [29]: 20.7% | viability, T/C [30]: 14.9%

CC(C)n1nc(-c2ccc3oc(N)nc3c2)c2c(N)ncnc21 + CCN1CCN(Cc2ccc(Nc3ncc(F)c(-c4cc(F)c5nc(C)n(C(C)C)c5c4)n3)nc2)CC1
IC50 (second compound 0.01 µM): 7.33 nM | IC50 (second compound 0.0316 µM): 4.58 nM | IC50 (second compound 0.1 µM): 2.01 nM | IC50 (second compound 0.316 µM): 1.03 nM | IC50 (second compound 1 µM): 1.17 nM | viability, T/C (second compound 0.01 µM, first compound 0.000316 µM): 90.9% | viability, T/C (second compound 0.01 µM, first compound 0.001 µM): 77.3% | viability, T/C (second compound 0.01 µM, first compound 0.00316 µM): 68.1% | viability, T/C (second compound 0.01 µM, first compound 0.01 µM): 45.6% | viability, T/C [1]: 21.2% | viability, T/C [2]: 16.1% | viability, T/C (second compound 0.0316 µM, first compound 0.000316 µM): 68.7% | viability, T/C (second compound 0.0316 µM, first compound 0.001 µM): 73.6% | viability, T/C (second compound 0.0316 µM, first compound 0.00316 µM): 53.8% | viability, T/C (second compound 0.0316 µM, first compound 0.01 µM): 37.1% | viability, T/C [7]: 19.8% | viability, T/C [8]: 14.8% | viability, T/C (second compound 0.1 µM, first compound 0.000316 µM): 58.2% | viability, T/C (second compound 0.1 µM, first compound 0.001 µM): 50.3% | viability, T/C (second compound 0.1 µM, first compound 0.00316 µM): 49.8% | viability, T/C (second compound 0.1 µM, first compound 0.01 µM): 31.4% | viability, T/C [13]: 20.7% | viability, T/C [14]: 14.6% | viability, T/C (second compound 0.316 µM, first compound 0.000316 µM): 59.2% | viability, T/C (second compound 0.316 µM, first compound 0.001 µM): 50.1% | viability, T/C (second compound 0.316 µM, first compound 0.00316 µM): 39.5% | viability, T/C (second compound 0.316 µM, first compound 0.01 µM): 28.5% | viability, T/C [19]: 20.3% | viability, T/C [20]: 15.2% | viability, T/C (second compound 1 µM, first compound 0.000316 µM): 56.9% | viability, T/C (second compound 1 µM, first compound 0.001 µM): 50.8% | viability, T/C (second compound 1 µM, first compound 0.00316 µM): 46.3% | viability, T/C (second compound 1 µM, first compound 0.01 µM): 35.7% | viability, T/C [25]: 23.1% | viability, T/C [26]: 19.9%

CC1(C)CCC(CN2CCN(c3ccc(C(=O)NS(=O)(=O)c4ccc(NCC5CCOCC5)c([N+](=O)[O-])c4)c(Oc4cnc5[nH]ccc5c4)c3)CC2)=C(c2ccc(Cl)cc2)C1 + CCN1CCN(Cc2ccc(Nc3ncc(F)c(-c4cc(F)c5nc(C)n(C(C)C)c5c4)n3)nc2)CC1
IC50 (second compound 0.01 µM): 5020 nM | IC50 (second compound 0.0316 µM): 5020 nM | IC50 (second compound 0.1 µM): 4470 nM | IC50 (second compound 0.316 µM): 3890 nM | IC50 (second compound 1 µM): 3560 nM | viability, T/C [1]: 100% | viability, T/C [2]: 91.6% | viability, T/C [3]: 96.6% | viability, T/C [4]: 86.9% | viability, T/C [5]: 78.4% | viability, T/C [6]: 10.2% | viability, T/C [7]: 78% | viability, T/C [8]: 75.8% | viability, T/C [9]: 74.9% | viability, T/C [10]: 77.2% | viability, T/C [11]: 77.6% | viability, T/C [12]: 9.98% | viability, T/C [13]: 67.4% | viability, T/C [14]: 71.5% | viability, T/C [15]: 65.1% | viability, T/C [16]: 75.9% | viability, T/C [17]: 67.8% | viability, T/C [18]: 8.52% | viability, T/C [19]: 61.8% | viability, T/C [20]: 54.3% | viability, T/C [21]: 58.8% | viability, T/C [22]: 61.4% | viability, T/C [23]: 61.3% | viability, T/C [24]: 6.66% | viability, T/C [25]: 62.9% | viability, T/C [26]: 60.7% | viability, T/C [27]: 54.5% | viability, T/C [28]: 57.8% | viability, T/C [29]: 54.8% | viability, T/C [30]: 9.15%

CCCS(=O)(=O)Nc1ccc(F)c(C(=O)c2c[nH]c3ncc(-c4ccc(Cl)cc4)cc23)c1F + CCN1CCN(Cc2ccc(Nc3ncc(F)c(-c4cc(F)c5nc(C)n(C(C)C)c5c4)n3)nc2)CC1
IC50 (second compound 0.01 µM): > 10000 nM | IC50 (second compound 0.0316 µM): > 10000 nM | IC50 (second compound 0.1 µM): > 10000 nM | IC50 (second compound 0.316 µM): > 10000 nM | IC50 (second compound 1 µM): > 10000 nM | viability, T/C [1]: 107% | viability, T/C [2]: 105% | viability, T/C [3]: 104% | viability, T/C [4]: 108% | viability, T/C [5]: 98.1% | viability, T/C [6]: 97.3% | viability, T/C [7]: 81% | viability, T/C [8]: 88.7% | viability, T/C [9]: 85.6% | viability, T/C [10]: 99.5% | viability, T/C [11]: 94.2% | viability, T/C [12]: 86.9% | viability, T/C [13]: 73.4% | viability, T/C [14]: 77.8% | viability, T/C [15]: 77.2% | viability, T/C [16]: 78.5% | viability, T/C [17]: 76.6% | viability, T/C [18]: 70.8% | viability, T/C [19]: 70.6% | viability, T/C [20]: 70.2% | viability, T/C [21]: 63.8% | viability, T/C [22]: 76.1% | viability, T/C [23]: 73.1% | viability, T/C [24]: 70.4% | viability, T/C [25]: 58.9% | viability, T/C [26]: 70.9% | viability, T/C [27]: 72.8% | viability, T/C [28]: 68.3% | viability, T/C [29]: 68.3% | viability, T/C [30]: 63.2%

Cn1cnc2c(F)c(Nc3ccc(Br)cc3Cl)c(C(=O)NOCCO)cc21 + CCN1CCN(Cc2ccc(Nc3ncc(F)c(-c4cc(F)c5nc(C)n(C(C)C)c5c4)n3)nc2)CC1
IC50 (second compound 0.01 µM): 190 nM | IC50 (second compound 0.0316 µM): 19.5 nM | IC50 (second compound 0.1 µM): < 9.49 nM | IC50 (second compound 0.316 µM): < 9.49 nM | IC50 (second compound 1 µM): < 9.49 nM | viability, T/C (second compound 0.01 µM, first compound 0.00949 µM): 79.8% | viability, T/C (second compound 0.01 µM, first compound 0.03 µM): 64.2% | viability, T/C (second compound 0.01 µM, first compound 0.0949 µM): 53.6% | viability, T/C (second compound 0.01 µM, first compound 0.3 µM): 48.5% | viability, T/C (second compound 0.01 µM, first compound 0.949 µM): 38.1% | viability, T/C (second compound 0.01 µM, first compound 3 µM): 24.4% | viability, T/C (second compound 0.0316 µM, first compound 0.00949 µM): 54.8% | viability, T/C (second compound 0.0316 µM, first compound 0.03 µM): 46.3% | viability, T/C (second compound 0.0316 µM, first compound 0.0949 µM): 40.3% | viability, T/C (second compound 0.0316 µM, first compound 0.3 µM): 39% | viability, T/C (second compound 0.0316 µM, first compound 0.949 µM): 31.6% | viability, T/C (second compound 0.0316 µM, first compound 3 µM): 22% | viability, T/C (second compound 0.1 µM, first compound 0.00949 µM): 48.9% | viability, T/C (second compound 0.1 µM, first compound 0.03 µM): 42.7% | viability, T/C (second compound 0.1 µM, first compound 0.0949 µM): 39.5% | viability, T/C (second compound 0.1 µM, first compound 0.3 µM): 33.9% | viability, T/C (second compound 0.1 µM, first compound 0.949 µM): 28.5% | viability, T/C (second compound 0.1 µM, first compound 3 µM): 20.9% | viability, T/C (second compound 0.316 µM, first compound 0.00949 µM): 42.9% | viability, T/C (second compound 0.316 µM, first compound 0.03 µM): 41.7% | viability, T/C (second compound 0.316 µM, first compound 0.0949 µM): 35.9% | viability, T/C (second compound 0.316 µM, first compound 0.3 µM): 33% | viability, T/C (second compound 0.316 µM, first compound 0.949 µM): 24.6% | viability, T/C (second compound 0.316 µM, first compound 3 µM): 20.3% | viability, T/C (second compound 1 µM, first compound 0.00949 µM): 45.3% | viability, T/C (second compound 1 µM, first compound 0.03 µM): 43% | viability, T/C (second compound 1 µM, first compound 0.0949 µM): 36.5% | viability, T/C (second compound 1 µM, first compound 0.3 µM): 29.4% | viability, T/C (second compound 1 µM, first compound 0.949 µM): 26.3% | viability, T/C (second compound 1 µM, first compound 3 µM): 17.8%
